# Test results from patent publication US8173840B2, “Compounds with high therapeutic index” (Signature R&D Holdings, LLC, priority 2003, dated 2012).
# Where “and” joins values, the source holds several entries; their conditions need not be identical. Equal values may be shown once.
# Legend:
# [1] = test system: male albino mice (Swiss strain); assay: Acetylcholine induced abdominal constriction (writhe) method; assay type: in vivo, mouse; conditions: for Number of animals showing absence of single writhe (number of animals per dose = 10), One hour after dosing / Number of animals showing absence of single writhe (number of animals per dose = 10), Three hours after dosing: gavage
# Protocol: Ibuprofen (racemic mixture) and ibuprofen (S)-(+) served as reference controls.
# The study was conducted at two dose levels viz. 50 mg and 100 mg/kg body weight along with a vehicle control group. At each dose level 10 animals were used. All the doses were expressed as ibuprofen molar equivalents. The doses used as well as the molar equivalents are presented below.
# The efficacy in terms of antagonizing effect on acetylcholine induced single writhe at two dose levels—50.0 and 100.0 mg/kg for the three formulations and reference controls are presented below.
# rats = assay: Hypolipidemic property, blood triglycerides in rats on high sugar diet; assay type: in vivo, rat; conditions: for Triglycerides, Day 7 / Triglycerides, Day zero / Triglycerides, Day 14: individual animals; for Triglycerides, Day 7: after 1 week high sugar diet, before drug; for Triglycerides, Day zero: before diet and drug; for Triglycerides, Day 14: drug day 7-14; for anti-hyperlipidemic properties: compared with Fenofibrate
# Protocol: Rats were checked for time zero triglyceride level in blood. Then the rats were set on high sugar diet, such as 30% sucrose in water for 1 week. Then at the end of 1 week, rats were tested for triglycerides, and were put on normal diet. From day 7-14 the rats were administered either test or control drug. Triglycerides were again tested on the 14th day in rat blood.
# albino mouse = assay: Anesthetic effect in male albino mice, righting reflex as index; conditions: low, intermediate, high dose
# Text: However the doses of low, intermediate and high for different formulations and reference control were different.
# The different doses for each formulation and reference control were selected based on the recommendation of Sponsor. All the doses were expressed as propofol molar equivalents.
# [2] = test system: albino mice (Swiss strain); assay: 14 day repeated dose toxicity study, intravenous route, propofol esters
# Protocol: by conducting a 14 day repeated dose toxicity study through intravenous route using albino mice as test system.
# Propofol and its derivatives above were administered to albino mice (Swiss strain), through intravenous route daily for a period of 14 days using sterile sodium chloride solution as vehicle. The study was conducted at one dose level only along with a vehicle control group as per the recommendation of the Sponsor.
# The doses were selected as per the recommendation of the Sponsor. The test doses are expressed as Propofol molar equivalents.
# Swiss Albino Mice = assay: 28-day chronic toxicity study of ibuprofen esters; conditions: 28 days
# Text: Randomization was done by the method of stratified randomization procedure using SAS software program (Version 8.2) with stratification by bodyweight.
# The duration of dosing was 28 days. All the animals were daily tested until the end of the study for the presence/absence of clinical symptoms of toxicity. Cage side observations included changes in the skin, eyes, posture, gait, respiration and behavior pattern. The incidence of twitching, tremors, convulsions, salivation, diarrhea and death if any, were also recorded.
# [3] = 50.0 mg/kg in terms of Ibuprofen
# [4] = 100.0 mg/kg in terms of Ibuprofen
Compound,"Number of animals showing absence of single writhe (number of animals per dose = 10), One hour after dosing [1, 3]","Number of animals showing absence of single writhe (number of animals per dose = 10), Three hours after dosing [1, 3]","Number of animals showing absence of single writhe (number of animals per dose = 10), One hour after dosing [1, 4]","Number of animals showing absence of single writhe (number of animals per dose = 10), Three hours after dosing [1, 4]",% Change From day 0 (rats; Dose 25 mg/kg),% Change from day 7 (rats; Dose 25 mg/kg),Absolute Change from day 0 (rats; Dose 25 mg/kg),Absolute Change from day 7 (rats; Dose 25 mg/kg),% Change From day 0 (rats; Dose 50 mg/kg),% Change from day 7 (rats; Dose 50 mg/kg),Absolute Change from day 0 (rats; Dose 50 mg/kg),Absolute Change from day 7 (rats; Dose 50 mg/kg),% Change From day 0 (rats; Dose 100 mg/kg),% Change from day 7 (rats; Dose 100 mg/kg),Absolute Change from day 0 (rats; Dose 100 mg/kg),Absolute Change from day 7 (rats; Dose 100 mg/kg),also measured
"CC(C)Cc1ccc(C(C)C(=O)O[C@H]2CN[C@H](C(=O)O)C2)cc1 (mixture of isomers) [(±)-Ibuprofen-L-hydroxyproline ester, 4(R)-[2-(4-Isobutyl-phenyl)-propionyloxy]-pyrrolidine-2(S)-carboxylic acid] [listing 1 of 2 here]",5,4,7,7,,,,,,,,,,,,,"antagonizing the acetylcholine induced writhe, clinical observation ([1]; compared to other formulations, Ibuprofen (racemic) and Ibuprofen (S)-(+)): more effective in antagonizing the acetylcholine induced writhe"
"CC(C)(Oc1ccc(C(=O)c2ccc(Cl)cc2)cc1)C(=O)OC[C@H](N)C(=O)O.Cl [L-Serine Ester of Fenofibric Acid, L-serine-fenofibric acid ester, hydrochloride]",,,,,−61.64%,−72.82%,−54,−90,−44.10%,−67.90%,−31.4,−84.2,−33.23%,−63.27%,−20.8,−72,"Triglycerides, Day 7 (rats; 50 mg/kg group, hydrochloride): 148 mg/dL and 145 mg/dL and 127 mg/dL; Triglycerides, Day zero (rats; 50 mg/kg group, hydrochloride): 88 mg/dL and 94 mg/dL and 100 mg/dL; Triglycerides, Day 14 (rats; 50 mg/kg, hydrochloride): 86 mg/dl (2×) and 73 mg/dl; Triglycerides, Day 7 (rats; 100 mg/kg group, hydrochloride): 100 mg/dL and 183 mg/dL; Triglycerides, Day zero (rats; 100 mg/kg group, hydrochloride): 109 mg/dL and 129 mg/dL and 71 mg/dL; Triglycerides, Day 14 (rats; 100 mg/kg, hydrochloride): 46 mg/dL and 69 mg/dL and 47 mg/dL; Triglycerides, Day 7 (rats; 200 mg/kg group, hydrochloride): 240 mg/dL and 158 mg/dL and 77 mg/dL; Triglycerides, Day zero (rats; 200 mg/kg group, hydrochloride): 74 mg/dL and 81 mg/dL and 42 mg/dL; Triglycerides, Day 14 (rats; 200 mg/kg, hydrochloride): 83 mg/dL and 61 mg/dL and 46 mg/dL"
"CC(C)Cc1ccc([C@H](C)C(=O)O)cc1 [Ibuprofen (S)-(+), reference compound]",5,1,6,6,,,,,,,,,,,,,
"CC(C)OC(=O)C(C)(C)Oc1ccc(C(=O)c2ccc(Cl)cc2)cc1 [Fenofibrate, reference compound]",,,,,−15.21%,−45.86%,−10.8,−51,−22.95%,−66.06%,−13.4,−87.6,−61.26%,−73.51%,−40.8,−71.6,"Triglycerides, Day 7 (rats; 50 mg/kg group): 150 mg/dL; Triglycerides, Day zero (rats; 50 mg/kg group): 95 mg/dL and 92 mg/dL and 80 mg/dL; Triglycerides, Day 14 (rats; 50 mg/kg): 101 mg/dL and 76 mg/dL and 73 mg/dL; Triglycerides, Day zero (rats; 100 mg/kg group): 110 mg/dL and 115 mg/dL and 96 mg/dL; Triglycerides, Day 14 (rats; 100 mg/kg): 62 mg/dL and 69 mg/dL and 93 mg/dL; Triglycerides, Day 7 (rats; 200 mg/kg group): 90 mg/dL and 106 mg/dL and 125 mg/dL; Triglycerides, Day zero (rats; 200 mg/kg group): 144 mg/dL and 56 mg/dL and 58 mg/dL; Triglycerides, Day 14 (rats; 200 mg/kg): 48 mg/dL and 51 mg/dL and 38 mg/dL"
"C[C@@H](OC(=O)C(C)(C)Oc1ccc(C(=O)c2ccc(Cl)cc2)cc1)[C@H](N)C(=O)O.Cl [Fen-T Ester, L-threonine-fenofibric acid ester, hydrochloride]",,,,,−23.21%,−37.68%,−18.2,−36.4,−35.00%,−63.71%,−23.8,−77.6,−68.45%,−75.04%,−63.8,−88.4,"anti-hyperlipidemic properties (rats; listed as Fenofibric Acid-L-Threonine ester, hydrochloride): overall superior anti-hyperlipidemic properties; anti-hyperlipidemic properties (rats; listed as L-Threonine ester, hydrochloride): dose dependent decrease in triglycerides"
"CC(C)c1cccc(C(C)C)c1O [Propofol injection, 2,6-diisopropylphenol, reference compound]",,,,,,,,,,,,,,,,,"dose response relation (statistical analysis) (albino mouse): statistically significant and clearly evident; feed intake ([2]; 14 days): normal and comparable to that of vehicle control group; animals exhibiting clinical symptoms of toxicity ([2]; IV daily 14 days): None of the animals; body weight gain ([2]; IV daily 14 days, compared to vehicle control): normal and comparable to that of vehicle control group of animals"
"CC(C)(Oc1ccc(C(=O)c2ccc(Cl)cc2)cc1)C(=O)OC1CN[C@H](C(=O)O)C1.Cl (stereo partly drawn) [Fen-HP Ester, L-hydroxyproline-fenofibric acid ester, hydrochloride]",,,,,−32.92%,−59.45%,−16,−47.8,−49.31%,−65.80%,−35.8,−70.8,−7.52%,−72.82%,−3.4,−112,
"CC(C)Cc1ccc(C(C)C(=O)O[C@H]2CN[C@H](C(=O)O)C2)cc1 (mixture of isomers) [(±)-Ibuprofen-L-hydroxyproline ester, 4(R)-[2-(4-Isobutyl-phenyl)-propionyloxy]-pyrrolidine-2(S)-carboxylic acid] [listing 2 of 2 here]",,,,,,,,,,,,,,,,,No of animals survived (Swiss Albino Mice; 10 animals per group): 9; animals that died (Swiss Albino Mice; both sexes): 10%; Mortality (Swiss Albino Mice; Female): 1/5; Mortality (Swiss Albino Mice; Male): Nil; Average Change In body Weight (Swiss Albino Mice; surviving animals): 1.43 gms; Percentage Change of body weight (Swiss Albino Mice; surviving animals): 5.75%
"CC(C)Cc1ccc(C(C)C(=O)OC[C@H](N)C(=O)O)cc1.Cl (mixture of isomers) [(±)-Ibuprofen-L-serine ester, 2(S)-Amino-3-[2(R,S)-(4-isobutylphenyl)-propionyloxy]-propionic acid, hydrochloride]",4,2,6,4,,,,,,,,,,,,,
